These results are taken from US5229381A, “Substituted azetidinones as anti-inflammatory and antidegenerative agents” (Merck & Co., Inc., priority 1991, dated 1993).

In the test the target is T1, human polymorphonuclear leukocyte elastase (Homo sapiens, UniProt P08246).
T1 construct: Crude extract of human polymorphonuclear leukocytes (PMN) containing elastase activity; endogenous in cells; host or cells: human polymorphonuclear leukocytes (crude extract)
T1 sequence (P08246 30-247 limits assumed): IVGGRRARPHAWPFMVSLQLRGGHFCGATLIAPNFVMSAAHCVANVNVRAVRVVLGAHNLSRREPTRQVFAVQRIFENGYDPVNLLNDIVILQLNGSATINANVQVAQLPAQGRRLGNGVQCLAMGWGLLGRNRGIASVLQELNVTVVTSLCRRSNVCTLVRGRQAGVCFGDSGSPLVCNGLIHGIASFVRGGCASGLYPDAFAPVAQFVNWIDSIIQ
As to the kind of experiment: Inhibition of human polymorphonuclear leukocyte (granulocyte) elastase via hydrolysis of Boc-AAPAN or Boc-AAPVN. To be noted: for Ki: Table I, read-out: Ki, concentration of the inhibitor giving 50% of the control enzyme activity. It counts as biochemical.

[1] abbreviates: pH 7.5, read-out: kobs/I, second order rate constant of inactivation of the enzyme.
[2] abbreviates: pH 7.5, Table IV, (per mole per second), read-out: kobs/I, second order rate constant of inactivation of the enzyme.
The mark [3] stands for this setting: pH 7.5, Table I, read-out: kobs/I, second order rate constant of inactivation of the enzyme.

The structures appear in SMILES notation. Like-named read-outs stand apart in the source and are kept apart here.

Turning to `CCCC1(C)C(=O)N(C(=O)NCc2ccccc2)C1Oc1ccc(C(=O)O)cc1` (stereo not drawn), the kinact/KI under setting [1] came to 1900 M⁻¹ s⁻¹.

Regarding `CCC[C@@H](NC(=O)N1C(=O)C(CC)(CC)C1Oc1ccc(CC(=O)O)cc1)c1ccc2occc2c1` (stereo partly drawn), the kinact/KI under setting [2] came to 847000 M⁻¹ s⁻¹.

Turning to `CCOC(=O)c1ccc(COC(=O)N2C(=O)C(CC)(CC)C2Oc2ccc(C(=O)O)cc2)cc1` (stereo not drawn), the kinact/KI under setting [2] stood at 14300 M⁻¹ s⁻¹.

Turning to `CCC1C(=O)N(C(=O)N(CC)Cc2ccccc2)C1Oc1ccc(C(=O)O)cc1` (stereo not drawn), the kinact/KI under setting [2] turned out to be 83000 M⁻¹ s⁻¹.

Take `CCOC(=O)c1ccc(COC(=O)N2C(=O)C(CC)C2Oc2ccc(C(=O)O)cc2)cc1` (stereo not drawn): the kinact/KI under setting [2] was determined as 227000 M⁻¹ s⁻¹.

With `CC[C@H]1C(=O)N(S(=O)(=O)c2ccc(C)cc2)[C@H]1C(=O)N1CCCC1` (relative stereo), the Ki was 27.7 µM. Besides, the kinact/KI under setting [1] was found to be 541 M⁻¹ s⁻¹.

With `CC[C@H]1C(=O)N(S(=O)(=O)c2ccc(C)cc2)[C@H]1C(=O)N(C)CC(=O)O` (relative stereo), the Ki is 22 µM. Under setting [1], the kinact/KI amounted to 165 M⁻¹ s⁻¹.

In the case of `CC[C@H]1C(=O)N(S(=O)(=O)c2ccc(C)cc2)[C@H]1C(=O)OCc1ccc(C(=O)O)cc1` (relative stereo), the Ki was 4.2 µM. Besides, under setting [1], the kinact/KI worked out at 299 M⁻¹ s⁻¹.

Take `CC[C@H]1C(=O)N(S(=O)(=O)c2ccc(C)cc2)[C@H]1C(=O)OCC(=O)O` (relative stereo): the kinact/KI under setting [3] was 1550 M⁻¹ s⁻¹.

Consider `CCOC(=O)N1C(=O)[C@H](CC)[C@@H]1OCC(=O)O` (relative stereo), for which, under setting [3], the kinact/KI stood at 796 M⁻¹ s⁻¹.

As for `CCOC(=O)N1C(=O)[C@H](CC)[C@H]1OCC(=O)NCC(=O)O` (relative stereo), the kinact/KI under setting [3] came out at 1000 M⁻¹ s⁻¹.

Take `CCOC(=O)N1C(=O)[C@H](CC)[C@H]1OCC(=O)O` (relative stereo): under setting [3], the kinact/KI came out at 512 M⁻¹ s⁻¹.

Consider `CCOC(=O)N1C(=O)[C@H](CC)[C@H]1OC(C)C(=O)O` (relative stereo), for which, under setting [3], the kinact/KI turned out to be 346 M⁻¹ s⁻¹.

Turning to `CC[C@H]1C(=O)N(C(C)=O)[C@@H]1Oc1ccc(C(=O)O)cc1` (relative stereo), the Ki was 3.4 µM. The kinact/KI under setting [1] was found to be 8730 M⁻¹ s⁻¹.

Take `CC[C@H]1C(=O)N(C(=O)NC)[C@@H]1Oc1ccc(C(=O)O)cc1` (relative stereo): the Ki was 16.5 µM.

For `CCOC(=O)N1C(=O)[C@H](CC)[C@H]1Oc1ccc(C(=O)O)cc1` (relative stereo), the Ki was found to be 2.1 µM. In addition, the kinact/KI under setting [1] came out at 8680 M⁻¹ s⁻¹.

Regarding `CCC[C@H]1C(=O)N(C(=O)OCC)[C@@H]1OCC(=O)O` (relative stereo), under setting [3], the kinact/KI was found to be 1500 M⁻¹ s⁻¹.

With `CCOC(=O)[C@@H]1[C@@H](CC)C(=O)N1S(=O)(=O)c1ccc([N+](=O)[O-])cc1` (relative stereo) [4-Carboethoxy-3-ethyl-1-(p-nitrobenzenesulfonyl)-azetidin-2-one], the kinact/KI under setting [1] is 39300 M⁻¹ s⁻¹.

With `CCOC(=O)[C@H]1[C@@H](CC)C(=O)N1S(=O)(=O)c1ccc([N+](=O)[O-])cc1` (relative stereo) [4-Carboethoxy-3-ethyl-1-(p-nitrobenzenesulfonyl)-azetidin-2-one], the kinact/KI under setting [1] amounted to 3920 M⁻¹ s⁻¹.

For the compound `CC[C@H]1C(=O)N(C(=O)c2ccccc2)[C@H]1OC(C)=O` (relative stereo) [Table I: H; C2 H5 (cis); OCOCH3; COPh], the Ki was found to be 0.14 µM.

On to `CC[C@H]1C(=O)N(C(C)=O)[C@H]1OC(=O)c1ccccc1` (relative stereo) [Table I: H; C2 H5 (cis); OCOPh; COCH3], for which the Ki amounted to 0.21 µM. The kinact/KI under setting [1] is 28500 M⁻¹ s⁻¹.

Regarding `CCO[C@@H]1[C@@H](CC)C(=O)N1C(C)=O` (relative stereo) [Table I: H; C2 H5 (trans); OC2 H5; COCH3], the Ki is 11.9 µM. For the same compound, under setting [1], the kinact/KI came to 1670 M⁻¹ s⁻¹.

For `CC[C@H]1C(=O)N(C(C)=O)[C@@H]1OC(=O)c1ccccc1` (relative stereo) [Table I: H; C2 H5 (trans); OCOPh; COCH3], the Ki turned out to be 0.19 µM. Moreover, the kinact/KI under setting [1] was determined as 81000 M⁻¹ s⁻¹.

Regarding `CC[C@H]1C(=O)N(C(C)=O)[C@@H]1Oc1ccccc1` (relative stereo) [Table I: H; C2 H5 (trans); OPh; COCH3], the Ki was 4.3 µM. Also, under setting [1], the kinact/KI turned out to be 5270 M⁻¹ s⁻¹.
